# Results taken from patent US10344039B2, “Macrocyclic spirocarbamate derivatives as factor XIa inhibitors, pharmaceutically acceptable compositions and their use” (MERCK SHARP & DOHME CORP., priority 2015, dated 2019).
# pKi: −log10 of the molar value.
# Biological target: T1, purified human Factor XIa (Homo sapiens, UniProt P03951)
# T1 construct: purified human Factor XIa; purchased Sekisui Diagnostics
# Assay: Factor XIa Assay
# Format: biochemical
# Details: purified human Factor XIa 40 pM; substrate Z-Gly-Pro-Arg-AFC 100 μM; 50 mM HEPES pH 7.4; read-out: Hu FXIa Ki
# Experimental: The effectiveness of a compound of the present invention as an inhibitor of Coagulation Factor XIa can be determined using a relevant purified serine protease, and an appropriate synthetic substrate. The rate of hydrolysis of the chromogenic or fluorogenic substrate by the relevant serine protease was measured both in the absence and presence of compounds of the present invention. Assays were conducted at room temperature or at 37° C. […] A decrease in the rate of fluorescence change in the presence of inhibitor is indicative of enzyme inhibition. Such methods are known to one skilled in the art. The results of this assay are expressed as the inhibitory constant, Ki.
# Factor XIa determinations were made in 50 mM HEPES buffer at pH 7.4 containing 150 mM NaCl, 5 mM CaCl2, and 0.1% PEG 8000 (polyethylene glycol; JT Baker or Fisher Scientific). Determinations were made using purified human Factor XIa at a final concentration of 40 pM (Sekisui Diagnostics) and he synthetic substrate, Z-Gly-Pro-Arg-AFC, TFA salt (Sigma #C0980) at a concentration of 100 μM.
# Activity assays were performed by diluting a stock solution of substrate at least tenfold to a final concentration ≤0.1 Km into a solution containing enzyme or enzyme equilibrated with inhibitor. Times required to achieve equilibration between enzyme and inhibitor were determined in control experiments. Initial velocities of product formation in the absence (Vo) or presence of inhibitor (Vi) were measured. Assuming competitive inhibition, and that unity is negligible compared Km/[S], [I]/e, and [I]/e (where [S], [I], and e respectively represent the total concentrations, of substrate, inhibitor and enzyme), the equilibrium constant (Ki) for dissociation of the inhibitor from the enzyme can be obtained from the dependence of Vo/Vi on [I] shown in the following equation. Vo/Vi=1+[I]/Ki
# The activities shown by this assay indicate that the compounds of the invention may be therapeutically useful for treating or preventing various cardiovascular and/or cerebrovascular thromboembolic conditions in patients suffering from unstable angina, acute coronary syndrome, refractory angina, myocardial infarction, transient ischemic attacks, atrial fibrillation, stroke such as thrombotic stroke or embolic stroke, venous thrombosis, coronary and cerebral arterial thrombosis, cerebral and pulmonary embolism, atherosclerosis, deep vein thrombosis, disseminated intravascular coagulation, and reocclusion or restenosis of recanalized vessels. The Ki values measured for each of the example compounds of the invention using this assay are reported in the tables above (as “Hu FXIa Ki (nM)”).
# T1 sequence (P03951 388-625 limits assumed): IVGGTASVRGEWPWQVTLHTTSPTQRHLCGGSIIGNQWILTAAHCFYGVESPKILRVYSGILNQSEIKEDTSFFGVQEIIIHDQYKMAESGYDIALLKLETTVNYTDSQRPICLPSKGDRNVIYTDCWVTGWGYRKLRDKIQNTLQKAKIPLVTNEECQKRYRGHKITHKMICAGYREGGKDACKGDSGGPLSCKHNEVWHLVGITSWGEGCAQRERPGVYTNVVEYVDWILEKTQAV
# T1 sequence (P03951 19-387 partner limits assumed): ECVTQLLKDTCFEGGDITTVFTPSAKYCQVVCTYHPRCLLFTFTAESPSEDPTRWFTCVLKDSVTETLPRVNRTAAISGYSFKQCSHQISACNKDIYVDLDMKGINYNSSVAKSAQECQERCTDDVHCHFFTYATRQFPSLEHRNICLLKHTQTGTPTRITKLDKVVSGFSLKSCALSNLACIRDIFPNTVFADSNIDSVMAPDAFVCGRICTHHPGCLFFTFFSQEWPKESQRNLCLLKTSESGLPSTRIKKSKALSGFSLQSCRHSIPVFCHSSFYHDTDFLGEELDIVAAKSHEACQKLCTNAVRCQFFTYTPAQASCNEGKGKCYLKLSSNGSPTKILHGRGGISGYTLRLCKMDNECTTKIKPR
row,Compound,pKi
1,"COC(=O)Nc1ccc2c(c1)NC(=O)CCCCC[C@H](C(=O)N1CC[C@@]3(C1)OC(=O)Nc1ccc(Cl)c(F)c13)c1cc-2ccn1 [Example 18b, methyl ((S)-10-((R)-6-chloro-5-fluoro-2-oxo-1,2-dihydrospiro[benzo[d][1,3]oxazine-4,3′-pyrrolidine]-1′-carbonyl)-4-oxo-3-aza-1(4,2)-pyridina-2(1,2)-benzenacyclodecaphane-2^4-yl)carbamate]",6.70
2,"COC(=O)Nc1ccc2c(c1)NC(=O)CCCCC[C@@H](C(=O)N1CCC[C@@]3(C1)OC(=O)Nc1ccc(Cl)c(F)c13)c1cc-2ccn1 [Example 19a, methyl ((R)-10-((R)-6-chloro-5-fluoro-2-oxo-1,2-dihydrospiro[benzo[d][1,3]oxazine-4,3′-piperidine]-1′-carbonyl)-4-oxo-3-aza-1(4,2)-pyridina-2(1,2)-benzenacyclodecaphane-2^4-yl)carbamate]",7.31
3,"COC(=O)Nc1ccc2c(c1)NC(=O)CCCCC[C@H](C(=O)N1CCC[C@@]3(C1)OC(=O)Nc1ccc(Cl)c(F)c13)c1cc-2ccn1 [Example 19b, methyl ((S)-10-((R)-6-chloro-5-fluoro-2-oxo-1,2-dihydrospiro[benzo[d][1,3]oxazine-4,3′-piperidine]-1′-carbonyl)-4-oxo-3-aza-1(4,2)-pyridina-2(1,2)-benzenacyclodecaphane-2^4-yl)carbamate]",< 6.06
4,"Nc1ccc2c(c1)NC(=O)CC/C=C\C[C@@H](C(=O)N1CCC[C@@]3(C1)OC(=O)Nc1ccc(Cl)c(F)c13)c1cc-2ccn1 [Example 20a, (R)-1′-((R,Z)-2^4-amino-4-oxo-3-aza-1(4,2)-pyridina-2(1,2)-benzenacyclodecaphan-7-ene-10-carbonyl)-6-chloro-5-fluorospiro[benzo[d][1,3]oxazine-4,3′-piperidin]-2(1H)-one]",6.68
5,"COC(=O)Nc1ccc2c(c1)NC(=O)CC/C=C/C[C@H](C(=O)N1CCC[C@@]3(C1)OC(=O)Nc1ccc(Cl)c(F)c13)c1cc-2ccn1 [Example 21b, methyl ((S,E)-10-((R)-6-chloro-5-fluoro-2-oxo-1,2-dihydrospiro[benzo[d][1,3]oxazine-4,3′-piperidine]-1′-carbonyl)-4-oxo-3-aza-1(4,2)-pyridina-2(1,2)-benzenacyclodecaphanen-2^4-yl)carbamate]",< 6.06
6,"COC(=O)Nc1ccc2c(c1)NC(=O)CC/C=C\C[C@H](C(=O)N1CCC[C@@]3(C1)OC(=O)Nc1ccc(Cl)c(F)c13)c1cc-2ccn1 [Example 22b, methyl ((S,Z)-10-((R)-6-chloro-5-fluoro-2-oxo-1,2-dihydrospiro[benzo[d][1,3]oxazine-4,3′-piperidine]-1′-carbonyl)-4-oxo-3-aza-1(4,2)-pyridina-2(1,2)-benzenacyclodecaphanen-2^4-yl)carbamate]",< 6.06
7,"COC(=O)Nc1ccc2c(c1)NC(=O)CCCCC(C(=O)N1CCC[C@@]3(C1)OC(=O)Nc1ccc(Cl)c(F)c13)c1cccc-2n1 (stereo partly drawn) [Example 24, methyl (9-((R)-6-chloro-5-fluoro-2-oxo-1,2-dihydrospiro[benzo[d][1,3]oxazine-4,3′-piperidine]-1′-carbonyl)-4-oxo-3-aza-1(2,6)-pyridina-2(1,2)-benzenacyclononaphane-2^4-yl)carbamate]",< 6.06
8,"COC(=O)Nc1ccc2c(c1)NC(=O)CCCC[C@H](C(=O)N1CC[C@@]3(C1)OC(=O)Nc1ccc(Cl)c(F)c13)c1ccnc-2c1 [Example 25b, methyl ((S)-9-((R)-6-chloro-5-fluoro-2-oxo-1,2-dihydrospiro[benzo[d][1,3]oxazine-4,3′-pyrrolidine]-1′-carbonyl)-4-oxo-3-aza-1(2,4)-pyridina-2(1,2)-benzenacyclononaphane-2^4-yl)carbamate]",< 6.06
9,"COC(=O)Nc1ccc2c(c1)NC(=O)CCCC[C@@H](C(=O)N1CCC[C@@]3(C1)OC(=O)Nc1ccc(Cl)cc13)c1cc(F)cc-2c1 [Example 29a, methyl ((R)-9-((R)-6-chloro-2-oxo-1,2-dihydrospiro[benzo[d][1,3]oxazine-4,3′-piperidine]-1′-carbonyl)-1^5-fluoro-4-oxo-3-aza-1(1,3),2(1,2)-dibenzenacyclononaphane-2^4-yl)carbamate]",6.65
10,"COC(=O)Nc1ccc2c(c1)NC(=O)CCCC[C@H](C(=O)N1CCC[C@@]3(C1)OC(=O)Nc1ccc(Cl)cc13)c1cc(F)cc-2c1 [Example 29b, methyl ((S)-9-((R)-6-chloro-2-oxo-1,2-dihydrospiro[benzo[d][1,3]oxazine-4,3′-piperidine]-1′-carbonyl)-1^5-fluoro-4-oxo-3-aza-1(1,3),2(1,2)-dibenzenacyclononaphane-2^4-yl)carbamate]",< 5.06
11,"COC(=O)Nc1ccc2c(c1)NC(=O)CCCC[C@H](C(=O)N1CCC[C@@]3(C1)OC(=O)Nc1ccc(Cl)c(F)c13)c1cc(F)cc-2c1 [Example 30a, methyl ((S)-9-((R)-6-chloro-5-fluoro-2-oxo-1,2-dihydrospiro[benzo[d][1,3]oxazine-4,3′-piperidine]-1′-carbonyl)-1^5-fluoro-4-oxo-3-aza-1(1,3),2(1,2)-dibenzenacyclononaphane-2^4-yl)carbamate]",< 5.06
12,"COC(=O)Nc1ccc2c(c1)NC(C(=O)O)CCCCC(C(=O)N1CCC[C@@]3(C1)OC(=O)Nc1ccc(Cl)c(F)c13)c1nc-2c[nH]1 (stereo partly drawn) [Example 33, (Z)-9-((R)-6-chloro-5-fluoro-2-oxo-1,2-dihydrospiro[benzo[d][1,3]oxazine-4,3′-piperidine]-1′-carbonyl)-2^4-((methoxycarbonyl)amino)-1^1H-3-aza-1(4,2)-imidazola-2(1,2)-benzenacyclononaphane-4-carboxylic acid]",6.87
13,"COC(=O)Nc1ccc2c(c1)NC(=O)[C@@H](C)CCC[C@H](NC(=O)N1CCC[C@@]3(C1)OC(=O)Nc1ccc(Cl)cc13)c1cc-2ccn1 [Example 39, methyl ((5S,9S)-9-((R)-6-chloro-2-oxo-1,2-dihydrospiro[benzo[d][1,3]oxazine-4,3′-piperidine]-1′-carboxamido)-5-methyl-4-oxo-3-aza-1(4,2)-pyridina-2(1,2)-benzenacyclononaphane-2^4-yl)carbamate]",6.34
14,"COC(=O)Nc1ccc2c(c1)NC(=O)[C@H](C)CCC[C@H](NC(=O)N1CCC[C@@]3(C1)OC(=O)Nc1ccc(Cl)cc13)c1cc-2ccn1 [Example 40, methyl ((5R,9S)-9-((R)-6-chloro-2-oxo-1,2-dihydrospiro[benzo[d][1,3]oxazine-4,3′-piperidine]-1′-carboxamido)-5-methyl-4-oxo-3-aza-1(4,2)-pyridina-2(1,2)-benzenacyclononaphane-2^4-yl)carbamate]",< 5.30
15,"(R)-6-chloro-1′-((R,Z)-2^4-fluoro-4-oxo-11H-3-aza-1(4,2)-imidazola-2(1,2)-benzenacyclononaphane-9-carbonyl)spiro[benzo[d][1,3]oxazine-4,3′-pyrrolidin]-2(1H)-one [Example 5b]",6.74
